# Reference: US4536335A, “Carbapenem antibiotics” (Bristol-Myers Company, priority 1983, dated 1985)
# Like-named read-outs stand apart in the source and are kept apart here.
# Assays:
# S. pneumoniae A-9585 = assay: In vitro MIC, tube dilution; type: cell-based; settings: Streptococcus pneumoniae, A9585, Nutrient Broth, overnight incubation at 37° C.
# S. pyogenes A-9604 = assay: In vitro MIC, tube dilution; type: cell-based; settings: Streptococcus pyogenes, A9604, tube dilution, Nutrient Broth, overnight incubation at 37° C.
# S. aureus A-9537 = assay: In vitro MIC, tube dilution; type: cell-based; settings: Staphylococcus aureus, overnight incubation at 37° C.
# [1] = test system: S. aureus A-9606 (Pen-res.); assay: In vitro MIC, tube dilution; type: cell-based; settings: Staphylococcus aureus, Nutrient Broth, overnight incubation at 37° C., read-out: MIC S. aureus A-9606 (Pen-res.)
# S. faecalis A20688 = assay: In vitro MIC, tube dilution; type: cell-based; settings: Enterococcus faecalis, A20688, tube dilution, Nutrient Broth, overnight incubation at 37° C.
# E. coli A15119 = assay: In vitro MIC, tube dilution; type: cell-based; settings: Escherichia coli, A15119, tube dilution, Nutrient Broth, overnight incubation at 37° C.
# E. coli A20341-1 = assay: In vitro MIC, tube dilution; type: cell-based; settings: Escherichia coli, A203411, tube dilution, Nutrient Broth, overnight incubation at 37° C.
# K. pneumoniae A-9664 = assay: In vitro MIC, tube dilution; type: cell-based; settings: Klebsiella pneumoniae, A9664, tube dilution, Nutrient Broth, overnight incubation at 37° C.
# K. pneumoniae A20468 = assay: In vitro MIC, tube dilution; type: cell-based; settings: Klebsiella pneumoniae, A20468, tube dilution, Nutrient Broth, overnight incubation at 37° C.
# P. mirabilis A-9900 [2] = assay: In vitro MIC, tube dilution; type: cell-based; settings: Proteus mirabilis, A9900, tube dilution, Nutrient Broth, overnight incubation at 37° C.
# P. vulgaris A21559 = assay: In vitro MIC, tube dilution; type: cell-based; settings: Proteus vulgaris, A21559, tube dilution, Nutrient Broth, overnight incubation at 37° C.
# P. morganii A15153 = assay: In vitro MIC, tube dilution; type: cell-based; settings: Morganella morganii, A15153, tube dilution, Nutrient Broth, overnight incubation at 37° C.; read-out: MIC P. morganii A15153
# P. rettgeri A22424 = assay: In vitro MIC, tube dilution; type: cell-based; settings: Providencia rettgeri, A22424, tube dilution, Nutrient Broth, overnight incubation at 37° C.
# S. marcescens A20019 = assay: In vitro MIC, tube dilution; type: cell-based; settings: Serratia marcescens, A20019; tube dilution, Nutrient Broth, overnight incubation at 37° C.
# B. fragilis A22053 = assay: In vitro MIC, tube dilution; type: cell-based; settings: Bacteroides fragilis, Nutrient Broth, overnight incubation at 37° C.
# Excerpt: (§1) N-Formimidoyl thienamycin was included as a comparison compound.
# B. fragilis A22696 = assay: In vitro MIC, tube dilution; type: cell-based; settings: Bacteroides fragilis, Nutrient Broth, overnight incubation at 37° C.
# Excerpt: as §1
# B. fragilis A22862 = assay: In vitro MIC, tube dilution; type: cell-based; settings: Bacteroides fragilis, Nutrient Broth, overnight incubation at 37° C.
# Excerpt: as §1
# B. fragilis A22863 = assay: In vitro MIC, tube dilution; type: cell-based; settings: Bacteroides fragilis, Nutrient Broth, overnight incubation at 37° C.
# Excerpt: as §1
# E. cloacae A-9569 = assay: In vitro MIC, tube dilution; type: cell-based; settings: Enterobacter cloacae, A9569, Nutrient Broth, overnight incubation at 37° C.
# Excerpt: as §1
# E. cloacae A-9656 = assay: In vitro MIC, tube dilution; type: cell-based; settings: Enterobacter cloacae, A9656; tube dilution, Nutrient Broth, overnight incubation at 37° C.
# P. aeruginosa A-9843A [3] = assay: In vitro MIC, tube dilution; type: cell-based; settings: Pseudomonas aeruginosa, A9843A, Nutrient Broth, overnight incubation at 37° C.
# P. aeruginosa A21213 = assay: In vitro MIC, tube dilution; type: cell-based; settings: Pseudomonas aeruginosa, A21213, tube dilution, Nutrient Broth, overnight incubation at 37° C.
# P. mirabilis A-9900 [4] = assay: Protective effect in the intramuscular treatment of infected mice (PD50); type: in vivo; settings: Proteus mirabilis, A9900, im, read-out: PD50/Treatment, P. mirabilis A-9900
# Experimental: (§2) Treatment Schedule: Mice were treated i.m. with drugs 0 and 2 hours post-infection; 5 mice per dose were used for each test
# P. aeruginosa A-9843a [5] = assay: as above; type: in vivo; settings: Pseudomonas aeruginosa, A9843A, im; mice, challenge 3 × 10^6 organisms, treated i.m. 0 and 2 hours post-infection; read-out: PD50/Treatment, P. aeruginosa A-9843a
# Experimental: The PD50 (dose in mg/kg required to give protection to 50% of the infected mice) is indicated.
# as §2
# *For compound of Ex. 2, mice were infected i.p. with 2 × 10^9
# compounds of Ex. 4 and 5, mice were infected i.p. with ~9 ×
# were treated i.m. with drugs 0 and 2 h postinfection.
# [6] = Toxicity after intracranial administration to mice; settings: mouse, in vivo
# Excerpt: | *Average of 25/mice/compound
# [7] = Blood levels in mice after intramuscular administration; type: in vivo; settings: mouse, blood, im, mice, i.m. 20 mg/kg
# Excerpt: Compounds were solubilized in 0.1 M phosphate buffer pH 7. Values are fro
# a single test; 4 mice used per compound.
# *t1/2 refers to halflife in minutes
# **AUC refers to the area under the blood concentrationtime curve
# (§3) Also shown is the urinary recovery in the mice.
# Compounds were solubilized in 0.1 M phosphate buffer, pH 7.
# Values based on a single test; 4 mice per compound.
# *T1/2 refers to halflife in minutes
# [8] = Urinary recovery after intramuscular administration to mice; type: in vivo; settings: mouse, urine, im, 20 mg/kg, mice, i.m. 20 mg/kg
# Experimental: Compounds were solubilized in 0.1 M phosphate buffer pH 7. Values are from a single test; 4 mice per compound.
# as §3
# ***Recovery based on 0-6 hour collection
# [9] = test system: various Pseudomonas species; settings: prior art description; cited from earlier work
smiles,measurement,setting,value
"C[C@@H](O)[C@H]1C(=O)N2C(C(=O)[O-])=C(SCC[N+]3(C)CCCC3)C[C@H]12 [Example 1, 3-[2-(N-methylpyrrolidinium)ethylthio]-6α-[1-(R)-hydroxyethyl]-7-oxo-1-azabicyclo [3.2.0]hept-2-ene-2-carboxylate]",MIC,S. pneumoniae A-9585,0.002 µg/mL
same,MIC,S. pyogenes A-9604,0.002 µg/mL
same,MIC,"S. aureus A-9537; A9537, + 50% serum, tube dilution, read-out: MIC S. aureus + 50% serum A-9537",0.016 µg/mL
same,MIC,"S. aureus A-9537; A9537, tube dilution, Nutrient Broth, read-out: MIC S. aureus A-9537",0.008 µg/mL
same,MIC,[1],0.016 µg/mL
same,MIC,S. faecalis A20688,1 µg/mL
same,MIC,E. coli A15119,0.03 µg/mL
same,MIC,E. coli A20341-1,0.03 µg/mL
same,MIC,K. pneumoniae A-9664,0.06 µg/mL
same,MIC,K. pneumoniae A20468,0.13 µg/mL
same,MIC,P. mirabilis A-9900 [2],0.13 µg/mL
same,MIC,P. vulgaris A21559,0.03 µg/mL
same,MIC,P. morganii A15153,0.13 µg/mL
same,MIC,P. rettgeri A22424,0.25 µg/mL
same,MIC,S. marcescens A20019,0.06 µg/mL
same,MIC,B. fragilis A22053,0.25 µg/mL
same,MIC,B. fragilis A22696,0.5 µg/mL
same,MIC,B. fragilis A22862,0.13 µg/mL
same,MIC,B. fragilis A22863,0.13 µg/mL
same,MIC,E. cloacae A-9569,0.25 µg/mL
same,MIC,E. cloacae A-9656,0.13 µg/mL
same,MIC,P. aeruginosa A-9843A [3],4 µg/mL
same,MIC,P. aeruginosa A21213,0.25 µg/mL
same,ED50,P. mirabilis A-9900 [4],> 10 mg/kg
same,ED50,P. aeruginosa A-9843a [5],3 mg/kg
same,NOAEL,[6],> 10 mg/kg
same,LD50,"[6]; intracranial administration to mice, average of 25 mice/compound",> 10 mg/kg
same,AUC,"[7]; 20 mg/kg, Example 1 table, read-out: AUC (area under the blood concentration-time curve)",5400 ng·h/mL
same,half-life,"[7]; 20 mg/kg, Example 1 table, read-out: t1/2 (half-life in blood)",11 min
same,concentration at 10 min,"[7]; 10 min, read-out: Blood Level 10 minutes after administration",13700 ng/mL
same,concentration at 20 min,"[7]; 20 min, read-out: Blood Level 20 minutes after administration",10200 ng/mL
same,concentration at 0.5 h,"[7]; 30 min, read-out: Blood Level 30 minutes after administration",5700 ng/mL
same,concentration at 0.75 h,"[7]; 45 min, read-out: Blood Level 45 minutes after administration",2100 ng/mL
same,concentration at 1 h,"[7]; 60 min, read-out: Blood Level 60 minutes after administration",< 600 ng/mL
same,concentration at […],"[7]; 90 min, read-out: Blood Level 90 minutes after administration",< 600 ng/mL
same,dose excreted at 3 h,"[8]; 0-3 hours after administration, read-out: Percentage of Dose Recovered in urine, 0-3 hours",18.8%
same,dose excreted at 24 h,"[8]; 0-24 hours after administration, read-out: Percentage of Dose Recovered in urine, 0-24 hours",19.5 ± 3.2%
same,dose excreted at 6 h,"[8]; 3-6 hours after administration, read-out: Percentage of Dose Recovered in urine, 3-6 hours",0.6%
same,dose excreted at 24 h,"[8]; 6-24 hours after administration, read-out: Percentage of Dose Recovered in urine, 6-24 hours",0.1%
"C[C@@H](O)[C@H]1C(=O)N2C(C(=O)O)=C(SCCN)C[C@H]12 [Thienamycin, thienamycin]",activity against various Pseudomonas species,[9],notable activity
